molecular target: T1, Recombinant human TPH1 (MBP tagged) (Homo sapiens, UniProt P17752); assay: TPH1 in vitro inhibition assay (kinetic fluorescence); assay type: biochemical; conditions: TPH1 Range (TPH1 inhibition IC50)
T1 construct: cloning full length human TPH1 cDNA in to a bacterial pMAL-c5E expression vector; made in house; host or cells: E. coli BL21 (DE3)
T1 sequence (P17752 1-444): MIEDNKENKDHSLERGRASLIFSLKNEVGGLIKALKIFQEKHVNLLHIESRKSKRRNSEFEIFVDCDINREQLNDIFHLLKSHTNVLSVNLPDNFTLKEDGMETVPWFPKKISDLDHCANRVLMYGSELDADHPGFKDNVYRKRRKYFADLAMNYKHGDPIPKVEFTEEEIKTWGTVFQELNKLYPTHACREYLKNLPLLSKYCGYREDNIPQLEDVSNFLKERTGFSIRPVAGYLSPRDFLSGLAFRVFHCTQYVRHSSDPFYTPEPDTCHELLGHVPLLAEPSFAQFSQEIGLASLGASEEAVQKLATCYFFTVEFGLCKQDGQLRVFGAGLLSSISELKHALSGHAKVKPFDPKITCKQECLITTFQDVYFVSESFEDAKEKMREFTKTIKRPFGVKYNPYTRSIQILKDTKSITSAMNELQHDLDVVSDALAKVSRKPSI
Summary of the method: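 Final mix: 15 nM MBP-TPH1, 30 μM Trp, 36 μM 6-methyltetrahydropterin, 25 μM ferrous ammonium sulfate, 50 mM MES pH 7.1, 1% DMSO, room temperature.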

SMILES | IC50 [nM]
Nc1nc(O[C@H](c2ccc(Cl)cc2-c2ccccc2)C(F)(F)F)cc(N2CCC3(CC2)CN[C@@H](C(=O)O)C3)n1 [Example 54h, (R)-8-(2-amino-6-((R)-1-(5-chloro-[1,1′-biphenyl]-2-yl)-2,2,2-trifluoroethoxy)pyrimidin-4-yl)-2,8-diazaspiro[4.5]decane-3-carboxylic acid] | 3000 to 10000
Nc1nc(O[C@@H](c2ccc(Cl)cc2-c2ccccc2)C(F)(F)F)cc(N2CCC3(CC2)CN[C@@H](C(=O)O)C3)n1 [Example 54i, (R)-8-(2-amino-6-((S)-1-(5-chloro-[1,1′-biphenyl]-2-yl)-2,2,2-trifluoroethoxy)pyrimidin-4-yl)-2,8-diazaspiro[4.5]decane-3-carboxylic acid] | 3000 to 10000
Nc1nc(O[C@@H](c2ccc(Cl)cc2-c2ccccc2)C(F)(F)F)cc(N2CCC3(CC2)CN[C@H](C(=O)O)C3)n1 [Example 54j, (S)-8-(2-amino-6-((S)-1-(5-chloro-[1,1′-biphenyl]-2-yl)-2,2,2-trifluoroethoxy)pyrimidin-4-yl)-2,8-diazaspiro[4.5]decane-3-carboxylic acid] | 50 to 300
Cc1ccn(-c2cc(-c3ccc(C)c(C)c3)ccc2[C@H](Oc2cc(N3CCC4(CC3)CN[C@H](C(=O)O)C4)nc(N)n2)C(F)(F)F)n1 [Example 54k, (S)-8-(2-amino-6-((S)-1-(3′,4′-dimethyl-3-(3-methyl-1H-pyrazol-1-yl)-[1,1′-biphenyl]-4-yl)-2,2,2-trifluoroethoxy)pyrimidin-4-yl)-2,8-diazaspiro[4.5]decane-3-carboxylic acid] | 50 to 300
Cc1ccn(-c2cc(-c3ccc(C)c(C)c3)ccc2[C@H](Oc2cc(N3CCC4(CC3)CN[C@@H](C(=O)O)C4)nc(N)n2)C(F)(F)F)n1 [Example 54l, (R)-8-(2-amino-6-((S)-1-(3′,4′-dimethyl-3-(3-methyl-1H-pyrazol-1-yl)-[1,1′-biphenyl]-4-yl)-2,2,2-trifluoroethoxy)pyrimidin-4-yl)-2,8-diazaspiro[4.5]decane-3-carboxylic acid] | 3000 to 10000
Cc1ccn(-c2cc(-c3ccc(C)c(C)c3)ccc2[C@@H](Oc2cc(N3CCC4(CC3)CN[C@@H](C(=O)O)C4)nc(N)n2)C(F)(F)F)n1 [Example 54m, (R)-8-(2-amino-6-((R)-1-(3′,4′-dimethyl-3-(3-methyl-1H-pyrazol-1-yl)-[1,1′-biphenyl]-4-yl)-2,2,2-trifluoroethoxy)pyrimidin-4-yl)-2,8-diazaspiro[4.5]decane-3-carboxylic acid] | 300 to 3000

same assay, conditions: read-out: TPH1 Range (TPH1 inhibition IC50)

IC50 [nM] | SMILES
< 50 | CCCc1ccc([C@@H](Oc2cc(N3CCC4(CC3)CN[C@H](C(=O)O)C4)nc(N)n2)C(F)(F)F)c(-c2cccc(S(C)(=O)=O)c2)c1 [Example 54a, (S)-8-(2-Amino-6-((R)-2,2,2-trifluoro-1-(3′-(methylsulfonyl)-5-propyl-[1,1′-biphenyl]-2-yl)ethoxy)pyrimidin-4-yl)-2,8-diazaspiro[4.5]decane-3-carboxylic acid]
50 to 300 | CC(C)Oc1ccc(-c2ccc([C@@H](Oc3cc(N4CCC5(CC4)CN[C@H](C(=O)O)C5)nc(N)n3)C(F)(F)F)c(-c3ccccc3)c2)cc1 [Example 54b, (S)-8-(2-amino-6-((R)-2,2,2-trifluoro-1-(4-isopropoxy-[1,1′:3′,1″-terphenyl]-4′-yl)ethoxy)pyrimidin-4-yl)-2,8-diazaspiro[4.5]decane-3-carboxylic acid]
< 50 | CCCOc1ccc(-c2ccc([C@@H](Oc3cc(N4CCC5(CC4)CN[C@H](C(=O)O)C5)nc(N)n3)C(F)(F)F)c(-c3ccccc3)c2)cc1 [Example 54c, (S)-8-(2-amino-6-((R)-2,2,2-trifluoro-1-(4-propoxy-[1,1′:3′,1″-terphenyl]-4′-yl)ethoxy)pyrimidin-4-yl)-2,8-diazaspiro[4.5]decane-3-carboxylic acid]
50 to 300 | CS(=O)(=O)c1ccc([C@@H](Oc2cc(N3CCC4(CC3)CN[C@H](C(=O)O)C4)nc(N)n2)C(F)(F)F)c(-c2ccccc2)c1 [Example 54d, (S)-8-(2-amino-6-((R)-2,2,2-trifluoro-1-(5-(methylsulfonyl)-[1,1′-biphenyl]-2-yl)ethoxy)pyrimidin-4-yl)-2,8-diazaspiro[4.5]decane-3-carboxylic acid]
50 to 300 | CCCOc1ccc(-c2ccc([C@@H](Oc3cc(N4CCC5(CC4)CN[C@H](C(=O)O)C5)nc(N)n3)C(F)(F)F)c(-c3ccccc3)c2)cc1F [Example 54e, (S)-8-(2-amino-6-((R)-2,2,2-trifluoro-1-(3-fluoro-4-propoxy-[1,1′:3′,1″-terphenyl]-4′-yl)ethoxy)pyrimidin-4-yl)-2,8-diazaspiro[4.5]decane-3-carboxylic acid]
< 50 | Cc1ccc(-c2ccc([C@@H](Oc3cc(N4CCC5(CC4)CN[C@H](C(=O)O)C5)nc(N)n3)C(F)(F)F)c(-c3ccccc3)c2)cc1C [Example 54f, (S)-8-(2-amino-6-((R)-1-(3,4-dimethyl-[1,1′:3′,1″-terphenyl]-4′-yl)-2,2,2-trifluoroethoxy)pyrimidin-4-yl)-2,8-diazaspiro[4.5]decane-3-carboxylic acid]
50 to 300 | Nc1nc(O[C@H](c2ccc(-c3ccccc3)cc2-c2ccccc2)C(F)(F)F)cc(N2CCC3(CC2)CN[C@H](C(=O)O)C3)n1 [Example 54g, (S)-8-(6-((R)-1-([1,1′:3′,1″-terphenyl]-4′-yl)-2,2,2-trifluoroethoxy)-2-aminopyrimidin-4-yl)-2,8-diazaspiro[4.5]decane-3-carboxylic acid]
50 to 300 | Nc1nc(O[C@H](c2ccc(-c3ccccc3)cc2)C(F)(F)F)cc(N2CCC3(CC2)CN[C@H](C(=O)O)C3)n1 [Example 55a, (S)-8-(6-((R)-1-([1,1′-biphenyl]-4-yl)-2,2,2-trifluoroethoxy)-2-aminopyrimidin-4-yl)-2,8-diazaspiro[4.5]decane-3-carboxylic acid]
50 to 300 | COc1cc(C#N)cc(-c2ccc([C@@H](Oc3cc(N4CCC5(CC4)CN[C@H](C(=O)O)C5)nc(N)n3)C(F)(F)F)cc2)c1 [Example 55aa, (S)-8-(2-amino-6-((R)-1-(3′-cyano-5′-methoxy-[1,1′-biphenyl]-4-yl)-2,2,2-trifluoroethoxy)pyrimidin-4-yl)-2,8-diazaspiro[4.5]decane-3-carboxylic acid]
50 to 300 | Nc1nc(O[C@H](c2ccc(-c3ccc4[nH]c(=O)oc4c3)cc2)C(F)(F)F)cc(N2CCC3(CC2)CN[C@H](C(=O)O)C3)n1 [Example 55ab, (S)-8-(2-amino-6-((R)-2,2,2-trifluoro-1-(4-(2-oxo-2,3-dihydrobenzo[d]oxazol-6-yl)phenyl)ethoxy)pyrimidin-4-yl)-2,8-diazaspiro[4.5]decane-3-carboxylic acid]
50 to 300 | Cc1c[nH]c2ccc(-c3ccc([C@@H](Oc4cc(N5CCC6(CC5)CN[C@H](C(=O)O)C6)nc(N)n4)C(F)(F)F)cc3)cc12 [Example 55ac, (S)-8-(2-amino-6-((R)-2,2,2-trifluoro-1-(4-(3-methyl-1H-indol-5-yl)phenyl)ethoxy)pyrimidin-4-yl)-2,8-diazaspiro[4.5]decane-3-carboxylic acid]

SMILES | IC50 [nM]
COC(=O)c1ccc(-c2ccc([C@@H](Oc3cc(N4CCC5(CC4)CN[C@H](C(=O)O)C5)nc(N)n3)C(F)(F)F)cc2)cc1OC(C)=O [Example 55ad, (S)-8-(6-((R)-1-(3′-acetoxy-4′-(methoxycarbonyl)-[1,1′-biphenyl]-4-yl)-2,2,2-trifluoroethoxy)-2-aminopyrimidin-4-yl)-2,8-diazaspiro[4.5]decane-3-carboxylic acid] | 50 to 300
